What is called melting point is the temperature of the solid-liquid transition. One may read the IC50 as the concentration needed to halve the response being measured.

Molecules are shown by their SMILES. Where two headings read alike, the source gives them in different places.

The record followed here is US8546380B2, “Aminodihydrothiazine derivatives” (Shionogi & Co., Ltd., priority 2005, dated 2013).

Data set [1] deals with recombinant human BACE-1 protein (Homo sapiens (Human), UniProt P56817). The data set can be described thus: Measurement of Inhibition of β-Secretase Activity. Type of data set: biochemical. The settings on record: 3 h at 30° C., pH5.0, read-out: IC50 value. Summed up:
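Recombinant human BACE-1 incubated with compound and Eu-cryptate-labelled biotinylated peptide substrate 3 h at 30° C in 50 mM sodium acetate pH 5.0, 0.008% Triton X-100. Streptavidin-XL665 in KF-containing phosphate buffer pH 7.0 then added, 1 h at 30° C, for time-resolved FRET read-out.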

Where [2] appears, read: fluorescence-quenched peptide substrate 18 nM, BACE-1 7.4 nM.
Where [3] appears, read: recombinant human BACE-1 protein.

Sequence of recombinant human BACE-1 protein (P56817 46-501): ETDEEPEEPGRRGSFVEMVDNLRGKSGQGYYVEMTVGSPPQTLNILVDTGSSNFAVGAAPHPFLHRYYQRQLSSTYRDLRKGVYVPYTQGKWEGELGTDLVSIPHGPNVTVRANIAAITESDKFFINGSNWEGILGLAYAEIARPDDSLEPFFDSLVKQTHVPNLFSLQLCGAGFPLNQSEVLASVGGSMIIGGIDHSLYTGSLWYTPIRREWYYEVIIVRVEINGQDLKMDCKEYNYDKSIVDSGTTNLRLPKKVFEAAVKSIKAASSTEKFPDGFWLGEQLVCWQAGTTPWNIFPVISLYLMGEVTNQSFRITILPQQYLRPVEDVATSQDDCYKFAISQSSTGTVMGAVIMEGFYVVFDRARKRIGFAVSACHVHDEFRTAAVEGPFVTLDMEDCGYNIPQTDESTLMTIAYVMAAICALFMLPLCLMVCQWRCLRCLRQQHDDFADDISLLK

On to `CC1(c2ccc3ccccc3c2)CCSC(N)=N1.Cl` (centres unmarked) [Compound 3], for which the melting point is 285 °C (dec.). Also, the IC50 in data set [1] (setting [2]) is below 100 µM. The like results for `CC1(c2ccc3c(c2)CCCC3)CCSC(N)=N1` (centres unmarked) [Compound 6] were, in that order, 147 to 148 °C and below 100 µM. The like results for `COc1ccc(C2(C)N=C(N)SCC2C)cc1.Cl` (centres unmarked) [Compound 8] were, in that order, 214 to 217 °C and below 100 µM. The like results for `CC1(c2ccc3c(c2)OCCO3)CCSC(N)=N1` (centres unmarked) [Compound 18] were, in that order, 181 to 183 °C and below 100 µM. In the case of `CC1(c2cccc(NC(=O)c3ccc(C(F)(F)F)cc3)c2)CCSC(N)=N1` (centres unmarked) [Compound 26], the melting point fell in the range of 182 to 184 °C. In data set [1] (setting [3]), the IC50 turned out to be 1.98 µM. As for `CC1(c2ccc3c(c2)NC(=O)CO3)CCSC(N)=N1` (centres unmarked) [Compound 38], the melting point was 240 to 244 °C (dec.). The IC50 in data set [1] (setting [2]) is below 100 µM.

In turn, `CC1(c2csc3ccccc23)CCSC(N)=N1` (centres unmarked) [Compound 42] registered a melting point of 187 to 188 °C. In addition, the IC50 in data set [1] (setting [2]) was below 100 µM. In turn, `CC1(c2cccc(OCCOc3ccccc3)c2)CCSC(N)=N1.Cl` (centres unmarked) [Compound 57] showed a melting point of 197 to 198 °C. The IC50 in data set [1] (setting [2]) is below 100 µM. `CC1(c2cccc(NC(=O)c3ccc(C(N)=O)cn3)c2)CCSC(N)=N1.Cl` (centres unmarked) [Compound 73] displayed a melting point of 266 to 269 °C. For the same compound, the IC50 in data set [1] (setting [3]) turned out to be 0.435 µM. Regarding `Cc1ccc(C2(C)CCSC(N)=N2)cc1` (centres unmarked) [Compound 85], the melting point fell in the range of 147 to 148 °C. In addition, the IC50 in data set [1] (setting [2]) was below 100 µM. In turn, `CC1(c2cc(F)cc(NC(=O)c3ccc(Cl)cn3)c2)CCSC(N)=N1` (centres unmarked) [Compound 99] yielded a melting point of 221 to 224 °C. The IC50 in data set [1] (setting [2]) is below 100 µM.

As to `CC1(c2cccc(OCCOc3ccc(Cl)cc3)c2)CCSC(N)=N1.Cl` (centres unmarked) [Compound 121], the melting point was 166 to 167 °C. Also, the IC50 in data set [1] (setting [2]) is below 100 µM. In the same order, the values of `CC1(c2ccc3ccccc3c2)CCNC(N)=N1.O=S(=O)(O)O` (centres unmarked) [Compound 125] are above 300 °C and below 100 µM. In turn, `CC1(c2cccc(NC(=O)c3ncc(Cl)cc3Cl)c2)CCSC(N)=N1.Cl` (centres unmarked) [Compound 127] came in with a melting point of 280 to 285 °C. The IC50 in data set [1] (setting [3]) was determined as 0.054 µM. For the compound `COCc1ccc(C(=O)Nc2cccc(C3(C)CCSC(N)=N3)c2)nc1` (centres unmarked) [Compound 128], the melting point lay within 159 to 163 °C. Besides, the IC50 in data set [1] (setting [2]) is below 100 µM. In the same order, the values of `CC1(c2ccc(F)cc2)CCCSC(N)=N1.Cl` (centres unmarked) [Compound 129] are 219 to 222 °C and below 100 µM. On to `Cc1cc(C(=O)Nc2cccc(C3(C)CCSC(N)=N3)c2)n(C)n1` (centres unmarked) [Compound 130], for which the melting point was in the range of 128 to 131 °C. The IC50 in data set [1] (setting [2]) is below 100 µM.

`CC(=O)c1ccc(C(=O)Nc2cccc(C3(C)CCSC(N)=N3)c2)nc1` (centres unmarked) [Compound 139] came in with a melting point of 287 to 290 °C. Moreover, the IC50 in data set [1] (setting [2]) is below 100 µM. In turn, `CC1(c2cccc(/C=C/c3ccc(Cl)cc3)c2)CCSC(N)=N1.Cl` (centres unmarked) [Compound 161] displayed a melting point of 247 to 251 °C. The IC50 in data set [1] (setting [3]) was determined as 7.7 µM.

In the case of `CC1(c2cccc(NC(=O)c3cnccn3)c2)CCSC(N)=N1` (centres unmarked) [Compound 164], the melting point lay in the range of 91 to 96 °C. Also, the IC50 in data set [1] (setting [2]) is below 100 µM.

`CC1(c2cc(Br)cc(NC(=O)c3ccc(Cl)cn3)c2)CCSC(N)=N1.Cl` (centres unmarked) [Compound 165] yielded a melting point of 246 to 248 °C. Also, the IC50 in data set [1] (setting [3]) stood at 0.0394 µM. Compound `CC1(c2cc(F)cc(NC(=O)c3ccc(C(F)(F)F)cn3)c2)CCSC(N)=N1` (centres unmarked) [Compound 178] showed a melting point of 224 to 225 °C. Further, the IC50 in data set [1] (setting [2]) was below 100 µM. `CC1(c2cc(NC(=O)c3ncc(Cl)cn3)ccc2F)CCSC(N)=N1` (centres unmarked) [Compound 204] displayed a melting point of 205 to 208 °C. The IC50 in data set [1] (setting [2]) is below 100 µM. The compound `CC1(c2cccc(C(=O)Nc3ccc(Cl)cn3)c2)CCSC(N)=N1.Cl.Cl` (centres unmarked) [Compound 220] displayed a melting point of 191 to 193 °C. In addition, in data set [1] (setting [3]), the IC50 is 1.5 µM. Regarding `CC1(c2cc(NC(=O)c3n[nH]c4ccccc34)ccc2F)CCSC(N)=N1` (centres unmarked) [Compound 241], the melting point lay in the range of 187 to 190 °C. In data set [1] (setting [2]), the IC50 was below 100 µM. `COc1cnc(C(=O)Nc2cccc(C3(C)CCSC(N)=N3)c2)cn1` (centres unmarked) [Compound 243] gave a melting point of 182 to 184 °C. The IC50 in data set [1] (setting [2]) is below 100 µM. The like results for `CC1(c2cc(C#N)cc(NC(=O)c3ccc(Cl)cn3)c2)CCSC(N)=N1` (centres unmarked) [Compound 255] were, in that order, 238 to 239 °C and below 100 µM. Turning to `CC1(c2ccc(Oc3ccc(F)cc3)cc2)CCSC(N)=N1` (centres unmarked) [Compound 267], the melting point was in the range of 114 to 115 °C. In data set [1] (setting [2]), the IC50 is below 100 µM.

With `CC1(c2cccc(OCCCc3cccnc3)c2)CCSC(N)=N1` (centres unmarked) [Compound 282], the melting point is 146 to 147 °C. In addition, the 50% inhibitory concentration (IC50) in data set [1] (setting [2]) was below 100 µM. `CN(C)c1cnc(C(=O)Nc2cccc(C3(C)CCSC(N)=N3)c2)cn1` (centres unmarked) [Compound 302] yielded a melting point of 122 to 126 °C. For the same compound, the IC50 in data set [1] (setting [2]) was below 100 µM.

As for `Cc1cnc(C(=O)Nc2cccc(C3(C)CCSC(N)=N3)c2)cn1.Cl` (centres unmarked) [Compound 309], the melting point is 241 to 244 °C. Moreover, in data set [1] (setting [3]), the IC50 was 0.833 µM. In turn, `COc1ccc(C2(c3ccc(OC)cc3)CCSC(N)=N2)cc1` [Compound 1006] registered a melting point of 88 to 90 °C. `COc1ccc(C2(C)CCCSC(N)=N2)cc1` (centres unmarked) [Compound 1008] gave a melting point of 125 to 126 °C. The compound `CNC1=NC(C)(c2ccc(OC)cc2)CCS1` (centres unmarked) [Compound 1064] had a melting point of 84 to 85 °C. Same read-out and setting: with `Cc1ccc(Oc2ccc(C3(C)CCSC(N)=N3)cc2)cc1` (centres unmarked) [Compound 1067] the figure was 162 to 165 °C; with `CC1(c2ccc(F)c(C(=O)Nc3cc(Cl)ccn3)c2)CCSC(N)=N1` (centres unmarked) [Compound 1068], 132 to 134 °C.

`Cc1cccc(Oc2ccc(C3(C)CCSC(N)=N3)cc2)c1` (centres unmarked) [Compound 1110] had a melting point of 109 to 110 °C. On the same count and under the same terms, with `CC1(c2cccc(NC(=O)c3cnc4ccccc4n3)c2)CCSC(N)=N1` (centres unmarked) [Compound 1115] the figure was 167 to 170 °C; with `COC(=O)c1ccc(C2(C)CCSC(N)=N2)cc1` (centres unmarked) [Compound 1119], 153 to 157 °C. Same read-out and setting: with `CNC(=O)c1ccc(C2(C)CCSC(N)=N2)cc1` (centres unmarked) [Compound 1120] the figure was 213 to 214 °C; with `CC1(c2cccc(Oc3ccccc3)c2)CCSC(N)=N1` (centres unmarked) [Compound 1139], 140 to 141 °C. Same read-out and setting: the result for `COC(=O)c1cccc(C2(C)CCSC(N)=N2)c1` (centres unmarked) [Compound 1153] reads 156 to 159 °C.

`CC(=O)Nc1ccc(C2(C)CCSC(N)=N2)cc1` (centres unmarked) [Compound 1161] yielded a melting point of 192 to 193 °C. On the same count and under the same terms, the result for `CC1(c2ccc(F)c(-n3nc4c5cc(Cl)ccc5[nH]cc-4c3=O)c2)CCSC(N)=N1` (centres unmarked) [Compound 1166] reads 290 to 295 °C; that for `CC1(c2ccc(-c3ccccc3)cc2)CCSC(N)=N1` (centres unmarked) [Compound 1181], 194 to 195 °C; that for `CC1(c2ccc(C(=O)Nc3ccc(Cl)cc3)cc2)CCSC(N)=N1` (centres unmarked) [Compound 1230], 232 to 234 °C.
